Source: patent publication US11122807B2, “Herbicidal mixtures comprising L-glufosinate or its salt and a second herbicide” (BASF SE, priority 2017, dated 2021)

Test system: LOLMU (Lolium multiflorum)
Test: Greenhouse post-emergence herbicidal test, scale 0 to 100, synergism by Colby's equation
Assay type: in vivo
Description: Synergism can be described as an interaction where the combined effect of two or more compounds is greater than the sum of the individual effects of each of the compounds. The presence of a synergistic effect in terms of percent control, between two mixing partners (X and Y) can be calculated using the Colby equation (Colby, S. R., 1967, Calculating Synergistic and Antagonistic Responses in Herbicide Combinations, Weeds, 15, 21-22):
When the observed combined control effect is greater than the expected (calculated) combined control effect (E), then the combined effect is synergistic.
However, the weed control afforded by the compounds, mixtures or compositions is not limited to these species. The analysis of synergism or antagonism between the mixtures or compositions was determined using Colby's equation.
The culture containers used were plastic flowerpots containing loamy sand with approximately 3.0% of humus as the substrate. The seeds of the test plants were sown separately for each species and/or resistant biotype. For the pre-emergence treatment, the active ingredients, which had been suspended or emulsified in water, were applied directly after sowing by means of finely distributing nozzles. The containers were irrigated gently to promote germination and growth and subsequently covered with transparent plastic hoods until the plants had rooted. This cover caused uniform germination of the test plants, unless this had been impaired by the active ingredients. For the post-emergence treatment, the test plants were first grown to a height of 3 to 15 cm, depending on the plant habit, and only then treated with the active ingredients which had been suspended or emulsified in water. For this purpose, the test plants were either sown directly and grown in the same containers, or they were first grown separately as seedlings and transplanted into the test containers a few days prior to treatment. Depending on the species, the plants were kept at 10-25° C. or 20-35° C., respectively. The test period extended to 20 days after treatment. During this time, the plants were tended, and their response to the individual treatments was evaluated. The evaluation was carried out by using a scale from 0 to 100. 100 means no emergence of the plants or complete destruction of at least the above-ground parts, and 0 means no damage, or normal course of growth. Data shown are the mean of two replications.
L-Glufosinate: 5% EC formulation
Triaziflam: 5% EC formulation
Methiozolin: 250 g/l SC formulation

SMILES: Cc1cc(C)cc(OCC(C)Nc2nc(N)nc(C(C)(C)F)n2)c1 (stereo not drawn) [triaziflam]
- Herbicidal activity against LOLMU, Found (triaziflam alone 125 g ai/ha, scale 0-100, Example 1): 10
- Herbicidal activity against LOLMU, Found (triaziflam alone 250 g ai/ha, scale 0-100, Example 1): 55

SMILES: CP(=O)(O)CC[C@H](N)C(=O)O [L-Glufosinate, (2S)-2-amino-4-[hydroxy(methyl)phosphinoyl]butyric acid]
- Herbicidal activity against LOLMU, Found (L-Glufosinate alone 75 g ai/ha, scale 0-100 (100 = complete destruction), Example 1): 0
- Herbicidal activity against LOLMU, Found (L-Glufosinate alone 75 g ai/ha, scale 0-100, Example 2): 0

SMILES: Cc1ccsc1C1=NOC(C)(COCc2c(F)cccc2F)C1 (stereo not drawn) [methiozoline, methiozolin]
- Herbicidal activity against LOLMU, Found (methiozoline alone 125 g ai/ha, scale 0-100, Example 2): 0
- Herbicidal activity against LOLMU, Found (methiozoline alone 250 g ai/ha, scale 0-100, Example 2): 25
